Experimental data as given in patent publication US20250213644A1, “COMPOSITIONS AND METHODS FOR TREATMENT OF BONE-RELATED DISEASE OR DISORDER” (priority 2021, published 2025).

Columns and labels:
newly formed bone = conditions: rats, after 6 to 8 weeks of treatment; cited from earlier work
human osteoblasts = assay: Human osteoblast proliferation assay with or without SR144528; conditions: with CB2-selective antagonist SR144528
[1] = test system: New-born mouse calvarial osteoblasts; assay: Osteoblast proliferation assay (cell counts), WT and CB2−/− mouse-derived cultures
OVX-induced bone loss = assay: Rescue of OVX-induced bone loss, μCT of femora; format: in vivo, mouse
age-related bone loss = assay: Prevention of age-related bone loss in male mice, μCT; format: in vivo, mouse; conditions: male mice treated from 3 to 6 months of age
[2] = test system: Ti particle-induced osteolysis; assay: Calvarial osteolysis model, Ti particle-induced osteolysis, μCT; format: in vivo, mouse; conditions: fibrin membranes with Ti particles loaded with 10^−11M 5aa-OGP on mice calvaria; 4 weeks post-op
Excerpt: FIGS. 5A-5C show the effect of topically administered 5aa-OGP on Ti particle-induced osteolysis in vivo: Fibrin membranes including titanium particles derived from sand-blasted Ti implants, with 5aa-OGP (TiP+5aa-OGP) or with saline (TiP) were implanted onto mice calvaria. Membranes with no TiP were inserted in the control group. Mice were sacrificed 4 weeks post-op. and subjected to CT analysis. FIG. 5A—Pit Resorption Volume over total volume (PR.V/TV), FIG. 5B—Bone volume in the region of interest, chiefly representing the calvarial thickness), and FIG. 5C—Representative CT images of the calvaria. Data are expressed as mean±SD (n=4). *p<0.05 vs. Titanium.
Calvarial Osteolysis Model. To test the direct effect of Ti particles on inflammation-induced osteolysis in vivo, a mouse calvaria model and μCT analysis specifically designed in our laboratory was used. […]
μCT analysis—All specimens were scanned and analyzed using a μCT system (CT 50, Scanco Medical AG, Switzerland). […]
A custom-made algorithm based on Image-Processing Language (IPL, Scanco Medical) was developed to isolate the resorption pits, defined as unmineralized pits that were […] deep on the bone surface. The measured resorption volume was limited to a […] depth because beyond that, the resorption pit was connected to the internal diploe. […]

CB2 = CB2 (Homo sapiens, UniProt P34972); conditions: increasing concentrations of 5aa-OGP; CHO-CB2-derived membranes
[3] = mouse-derived osteoblast cultures, 48-hour incubation
[4] = WT OVX mice, 10 ng/day s.c. for 6 weeks

Sequence of CB2 (P34972 whole entry): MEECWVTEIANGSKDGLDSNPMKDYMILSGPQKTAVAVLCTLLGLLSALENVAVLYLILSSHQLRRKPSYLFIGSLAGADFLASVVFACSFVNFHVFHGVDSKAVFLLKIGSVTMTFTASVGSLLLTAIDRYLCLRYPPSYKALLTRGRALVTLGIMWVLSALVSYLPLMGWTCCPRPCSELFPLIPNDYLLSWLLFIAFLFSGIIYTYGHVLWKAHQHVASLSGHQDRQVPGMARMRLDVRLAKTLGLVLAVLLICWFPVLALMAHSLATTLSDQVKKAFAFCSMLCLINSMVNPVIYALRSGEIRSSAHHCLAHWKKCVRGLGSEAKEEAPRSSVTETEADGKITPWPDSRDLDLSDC

Row | Compound | Quality and biomechanical properties (e.g. bone strength) of the newly formed bone (newly formed bone) | Proliferative effect in human osteoblasts (human osteoblasts) | Osteoblastic proliferative activity [1, 3] | Any of the measured bone parameters (OVX-induced bone loss; OVX CB2−/− animals, 10 ng/day s.c. for 6 weeks) | Cortical bone parameters (OVX-induced bone loss; [4]) | Trabecular number (Tb.N) (OVX-induced bone loss; [4]) | Trabecular thickness (Tb.Th) (OVX-induced bone loss; [4]) | Trabecular volumetric bone mineral density (vBMD) (OVX-induced bone loss; [4]) | Trabecular bone volume fraction (BV/TV), change vs. OVX, VEH-treated mice (OVX-induced bone loss; WT OVX mice, 10 ng/day s.c. once a day for 6 weeks, starting 6 weeks post-OVX, p=0.035) | Trabecular connectivity density (age-related bone loss) | Trabecular number (age-related bone loss) | Trabecular thickness (age-related bone loss) | Bone volume in the calvaria (region of interest) [2] | Ti particle-induced osteolysis (Pit Resorption Volume over total volume, PR.V/TV) [2] | Osteoblastic proliferative activity ([1]; CB2−/−-derived murine osteoblasts (genetic ablation of CB2)) | Displacement of tritiated CP55,940 (CB2)
1 | C=C(C)[C@@H]1CCC(C)=C[C@H]1c1c(O)cc(CCCCC)cc1O [CBD, Cannabidiol] | enhanced |  |  |  |  |  |  |  |  |  |  |  |  |  |  | 
2 | CCCCCCC(C)(C)c1cc(OC)c(C2=C[C@H]3CC[C@]2(CO)C3(C)C)c(OC)c1 [HU-910, reference compound] |  | abrogated | nearly an identical dose response relationship |  |  |  |  |  |  |  |  |  |  |  |  | 
3 | YGFGG (listed as Homo sp.) [5aa-OGP] |  | abrogated | nearly an identical dose response relationship | no effect | did not affect | significant increases | significant increases | significant increases | +45.9% | significantly increased | significantly increased | significantly increased | increased bone volume | completely prevented this bone loss | completely abrogated | did not displace CP55,940
